The target of one assay is Carbonic anhydrase 1 (Homo sapiens, UniProt P00915). As to the kind of experiment: Inhibition of human carbonic anhydrase 1 preincubated for 15 mins by CO2 hydration stopped-flow assay.
In the next assay the target is Carbonic anhydrase 12 (Homo sapiens, UniProt O43570).
The target in the next assay is Carbonic anhydrase 9 (Homo sapiens, UniProt Q16790). As to the kind of experiment: Inhibition of human carbonic anhydrase 9 preincubated for 15 mins by CO2 hydration stopped-flow assay.
The target in a further assay is Carbonic anhydrase 2 (Homo sapiens, UniProt P00918). As to the kind of experiment: Inhibition of human carbonic anhydrase 2 preincubated for 15 mins by CO2 hydration stopped-flow assay.

The structures appear in SMILES notation.

Carbonic anhydrase 1, sequence (P00915 whole entry): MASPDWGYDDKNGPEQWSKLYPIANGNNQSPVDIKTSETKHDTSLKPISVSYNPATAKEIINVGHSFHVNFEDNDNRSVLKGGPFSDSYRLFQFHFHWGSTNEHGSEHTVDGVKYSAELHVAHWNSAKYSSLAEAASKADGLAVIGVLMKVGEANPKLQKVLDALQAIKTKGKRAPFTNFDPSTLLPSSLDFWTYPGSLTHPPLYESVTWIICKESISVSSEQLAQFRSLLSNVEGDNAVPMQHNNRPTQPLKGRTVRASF
Carbonic anhydrase 12, sequence (O43570 whole entry): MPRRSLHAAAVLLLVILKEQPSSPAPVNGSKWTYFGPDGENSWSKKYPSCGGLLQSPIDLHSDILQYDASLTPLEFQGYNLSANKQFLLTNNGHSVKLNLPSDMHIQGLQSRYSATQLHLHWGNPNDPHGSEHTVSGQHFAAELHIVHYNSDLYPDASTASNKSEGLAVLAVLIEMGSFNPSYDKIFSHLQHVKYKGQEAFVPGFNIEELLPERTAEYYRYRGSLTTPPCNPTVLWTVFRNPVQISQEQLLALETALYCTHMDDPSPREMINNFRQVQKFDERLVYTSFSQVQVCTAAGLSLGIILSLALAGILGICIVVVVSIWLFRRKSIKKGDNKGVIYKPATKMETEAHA

In general, Ki refers to the dissociation constant of the complex between target and ligand, obtained from inhibition or displacement. Read a high Ki as lower affinity. As for `O=C(O)c1cccc(O)c1` [3-HYDROXYBENZOIC ACID], the Ki came out at 2370 nM on Carbonic anhydrase 1, 3.53 µM at Carbonic anhydrase 12, 4.53 µM at Carbonic anhydrase 9 and 0.6 µM on Carbonic anhydrase 2.

Take `O=C(O)c1ccc(O)c(O)c1` [PROTOCATECHUIC ACID]: the values for the Ki at Carbonic anhydrase 1, at Carbonic anhydrase 12 and at Carbonic anhydrase 9 were 1080 nM, 4.09 µM and 4.45 µM, respectively.

Regarding `O=C(O)c1cc(O)cc(O)c1` [3,5-DIHYDROXYBENZOIC ACID], the Ki was found to be 550 nM at Carbonic anhydrase 1, 3.67 µM at Carbonic anhydrase 12 and 4.41 µM on Carbonic anhydrase 9.

In turn, `COc1ccc(OC)c(OC)c1` [1,2,4-TRIMETHOXYBENZENE] gave a Ki on Carbonic anhydrase 9 of 4.06 µM.

On to `COc1ccc(C(=O)O)cc1OC` [VERATRIC ACID], for which the inhibition constant (Ki) at Carbonic anhydrase 1 is 6830 nM; on Carbonic anhydrase 12, 6.7 µM; on Carbonic anhydrase 9 it was 8.25 µM; on Carbonic anhydrase 2, 6.18 µM.

As to `COc1ccc(OC)cc1` [1,4-DIMETHOXYBENZENE], at Carbonic anhydrase 2, the Ki is 3.35 µM.

The values are drawn from ChEMBL document CHEMBL1667861, “Kinetic and docking studies of phenol-based inhibitors of carbonic anhydrase isoforms I, II, IX and XII evidence a new binding mode within the enzyme active site” (Bioorg Med Chem, 2011).
